Measurements as given in US20130065897A1, “COMPOUNDS, PREPARATION AND USES THEREOF” (PETER MACCALLUM CANCER INSTITUTE, priority 2009, published 2013).

Columns and labels:
recombinant perforin = recombinant perforin (UniProt P10820); format: cell-based; settings: read-out: Jurkat IC50; recombinant perforin pre-incubated 30 min with compound; 51Cr-labelled Jurkat cells, 0.1% BSA, 37° C. 4 hours
Method: Inhibition of Perforin-Mediated Lysis of Jurkat Cells
The ability of the compounds to inhibit the lysis of nucleated (Jurkat T lymphoma) cells in the presence of 0.1% BSA, as measured by release of ^51Cr was measured. Jurkat target cells were labelled by incubation in medium with 100 μCi ^51Cr for one hour. The cells were then washed three times to remove unincorporated isotope and re-suspended at 1×10^5 cells per mL in RPMI buffer supplemented with 0.1% BSA. […] The supernatant was collected and assessed for its radioactive content on a gamma counter (Wallac Wizard 1470 automatic gamma counter). Each data point was performed in triplicate and an IC50 was calculated from the range of concentrations described to above.

[1] = system: KHYG-1 NK cell-mediated lysis of K562 cells; test: Inhibition of KHYG-1 NK cell-mediated lysis of K562 cells (51Cr release); format: cell-based; settings: K562 target cells, Effector:Target 2:1, 4 hours 37° C.
Method: Inhibition of KHYG-1 NK Cell-Mediated lysis of K562 Cells
KHYG-1 cells were washed and resuspended in RPMI+0.1% BSA at 4×10^5 cells/ml and 50 μl of KHYG-1 cells were dispensed to each well of a 96-well V-bottom, plate. Test compounds were added to KHYG-1 cells at various concentrations up to 20 μM and incubated at RT for 20 minutes. 1×10^6 K562 target cells were labelled with 75 μCi ^51Cr in 200 μl RPMI for 90 mins at 37° C., cells were washed as described above and resuspended in 5 ml RPMI+0.1% BSA. 50 μl of ^51Cr labelled K562 leukemia target cells were added to each well of the KHYG-1 plate (Effector:Target 2:1) and incubated at 37° C. for 4 hours. ^51Cr release was assayed using a Skatron Harvesting Press and radioactivity estimated on a Wallac Wizard 1470 Automatic Gamma counter (Turku, Finland). The percentage of specific cytotoxicity was calculated by the formula: […]
and expressed as the mean of triplicate assays +/−standard error of the mean.

KHYG-1 NK cells = test: Toxicity to KHYG-1 NK cells (trypan blue viability); format: cell-based; settings: viable cells as percentage of total (% viability), 18 to 24 hours
Method: Toxicity to KHYG-1 NK Cells
KHYG-1 cells were washed and resuspended in RPMI+0.1% BSA at 4×10^5 cells/ml and 50 μl of KHYG-1 cells were dispensed to each well of a 96-well V-bottom plate. Test compounds were added to KHYG-1 cells at a concentration of 20 μM and incubated at RT for 20 minutes. 100 μL of RPMI 0.1% BSA was added and the cells were incubated for 4 hours at 37° C. then washed ×3 in RPMI+0.1% BSA. Cells were then resuspended in 200 μl of complete medium and incubated for 18 to 24 hours at 37° C. Trypan blue was added to each well and viable (clear) cells counted as a percentage of total (clear+blue) cell number (% viability).

Chain of recombinant perforin (P10820 whole entry): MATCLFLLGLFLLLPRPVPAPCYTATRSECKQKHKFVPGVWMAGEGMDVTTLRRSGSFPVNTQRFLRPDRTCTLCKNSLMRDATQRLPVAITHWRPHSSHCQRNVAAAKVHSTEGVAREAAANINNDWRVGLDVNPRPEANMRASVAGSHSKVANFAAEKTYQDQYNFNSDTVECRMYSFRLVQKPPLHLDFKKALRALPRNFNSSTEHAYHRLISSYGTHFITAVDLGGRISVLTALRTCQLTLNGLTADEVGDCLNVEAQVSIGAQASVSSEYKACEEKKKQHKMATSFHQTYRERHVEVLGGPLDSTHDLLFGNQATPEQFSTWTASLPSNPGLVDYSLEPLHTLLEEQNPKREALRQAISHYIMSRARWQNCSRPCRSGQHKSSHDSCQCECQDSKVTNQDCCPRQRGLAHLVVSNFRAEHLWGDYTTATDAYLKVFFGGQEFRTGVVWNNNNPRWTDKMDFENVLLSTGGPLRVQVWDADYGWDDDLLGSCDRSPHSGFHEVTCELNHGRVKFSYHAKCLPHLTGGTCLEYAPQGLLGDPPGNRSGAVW

With `O=C1NC(=S)N/C1=C\c1csc(-c2ccc3c(c2)COC3=O)n1` [Cmpd 57, (E,Z)-5-((2-(1-Oxo-1,3-dihydroisobenzofuran-5-yl)thiazol-4-yl)methylene)-2-thioxoimidazolidin-4-one] the melting point was over 295 °C and the IC50 (recombinant perforin) was 0.34 µM.
With `O=C1NC(=S)N/C1=C\c1nc(-c2ccc3c(c2)COC3=O)cs1` [Cmpd 56, (E,Z)-5-((4-(1-Oxo-1,3-dihydroisobenzofuran-5-yl)thiazol-2-yl)methylene)-2-thioxoimidazolidin-4-one] the melting point was over 295 °C and the IC50 (recombinant perforin) was 1.41 µM.
In the case of `CN1CCN(CCCN2Cc3cc(-c4ccc(/C=C5/NC(=S)NC5=O)s4)ccc3C2=O)CC1` [Cmpd 76, (E,Z)-2-(3-(4-Methylpiperazin-1-yl)propyl)-5-(5-((5-oxo-2-thioxoimidazolidin-4-ylidene)methyl)thiophen-2-yl)isoindolin-1-one], the melting point is reported as 197 to 201 °C, the IC50 (recombinant perforin) is reported as over 20 µM and the inhibition at 20 µM [1] is reported as 58%.
With `O=C1NC(=S)N/C1=C/c1ccc(-c2ccc3c(c2)CN(CCN2CCOCC2)C3=O)s1` [Cmpd 67, (E,Z)-2-(2-Morpholinoethyl)-5-(5-((5-oxo-2-thioxoimidazolidin-4-ylidene)methyl)thiophen-2-yl)isoindolin-1-one] the melting point was 261 to 264 °C, the inhibition at 20 µM [1] was 78% and the “percent viable KHYG-1 cells (trypan blue) at 20 μM” value (shortened to “percent viable KHYG-1 cells”) (KHYG-1 NK cells) was 73%.
`O=C1NC(=S)N/C1=C/c1ccc(-c2ccc3c(c2)COC3=O)[nH]1` [Cmpd 53, (E,Z)-5-((5-(1-Oxo-1,3-dihydroisobenzofuran-5-yl)-1H-pyrrol-2-yl)methylene)-2-thioxoimidazolidin-4-one] gave a melting point of over 300 °C, an IC50 (recombinant perforin) of 2.45 µM and an inhibition at 20 µM [1] of 30%.
For `O=C1NC(=S)N/C1=C\c1ccc(-c2ccc3c(c2)COC3=O)cn1` [Cmpd 8, (E,Z)-5-((5-(1-oxo-1,3-dihydroisobenzofuran-5-yl)pyridin-2-yl)methylene)-2-thioxoimidazolidin-4-one], the melting point was over 300 °C, the inhibition at 20 µM [1] was 57% and the “percent viable KHYG-1 cells” value (KHYG-1 NK cells) was 96%.
For `O=C1NC(=S)N/C1=C/c1ccc(-c2cccnc2)s1` [Cmpd 26, (E,Z)-5-((5-(Pyridin-3-yl)thiophen-2-yl)methylene)-2-thioxoimidazolidin-4-one], the melting point was over 295 °C and the IC50 (recombinant perforin) was 12.9 µM.
`O=C1NC(=S)N/C1=C\c1cc(-c2ccc3c(c2)COC3=O)ns1` [Cmpd 60, (E,Z)-5-((3-(1-Oxo-1,3-dihydroisobenzofuran-5-yl)isothiazol-5-yl)methylene)-2-thioxoimidazolidin-4-one] gave a melting point of over 300 °C, an IC50 (recombinant perforin) of 1.44 µM and an inhibition at 20 µM [1] of 45%.
With `CNC(=O)c1ccc(-c2ccc(/C=C3/NC(=S)NC3=O)s2)cc1` [Cmpd 38, (E,Z)-N-Methyl-4-(5-((5-oxo-2-thioxoimidazolidin-4-ylidene)methyl)thiophen-2-yl)benzamide] the IC50 (recombinant perforin) was 4.53 µM, the inhibition at 20 µM [1] was 49% and the “percent viable KHYG-1 cells” value (KHYG-1 NK cells) was 97%.
In the case of `O=C1NC(=S)N/C1=C/c1ccc(-c2ccc(Cl)cc2)s1` [Cmpd 24, (E,Z)-5-((5-(4-Chlorophenyl)thiophen-2-yl)methylene)-2-thioxoimidazolidin-4-one], the IC50 (recombinant perforin) is reported as 5.22 µM, the inhibition at 20 µM [1] is reported as 59% and the “percent viable KHYG-1 cells” value (KHYG-1 NK cells) is reported as 89%.
In the case of `NC(=O)c1cccc(-c2ccc(/C=C3/NC(=S)NC3=O)s2)c1` [Cmpd 17, (E,Z)-3-(5-((5-Oxo-2-thioxoimidazolidin-4-ylidene)methyl)thiophen-2-yl)benzamide], the IC50 (recombinant perforin) is reported as 0.79 µM, the inhibition at 20 µM [1] is reported as 35% and the “percent viable KHYG-1 cells” value (KHYG-1 NK cells) is reported as 100%.
With `CCCCN1Cc2cc(-c3ccc(/C=C4/NC(=S)NC4=O)s3)ccc2C1=O` [Cmpd 64, (E,Z)-2-Butyl-5-(5-((5-oxo-2-thioxoimidazolidin-4-ylidene)methyl)thiophen-2-yl)isoindolin-1-one] the IC50 (recombinant perforin) was 0.99 µM, the inhibition at 20 µM [1] was 96% and the “percent viable KHYG-1 cells” value (KHYG-1 NK cells) was 94%.
In the case of `O=C1NC(=S)N/C1=C/c1ccc(-c2ccc(C(=O)NCCCN3CCOCC3)cc2)s1` [Cmpd 43, (E,Z)-N-(3-Morpholinopropyl)-4-(5-((5-oxo-2-thioxoimidazolidin-4-ylidene)methyl)thiophen-2-yl)benzamide], the IC50 (recombinant perforin) is reported as 8.13 µM, the inhibition at 20 µM [1] is reported as 81% and the “percent viable KHYG-1 cells” value (KHYG-1 NK cells) is reported as 89%.
With `O=C1NC(=S)N/C1=C/c1ccc(-c2ccc3c(c2)CN(CCO)C3=O)s1` [Cmpd 70, (E,Z)-2-(2-Hydroxyethyl)-5-(5-((5-oxo-2-thioxoimidazolidin-4-ylidene)methyl)thiophen-2-yl)isoindolin-1-one] the IC50 (recombinant perforin) was 0.78 µM, the inhibition at 20 µM [1] was 38% and the “percent viable KHYG-1 cells” value (KHYG-1 NK cells) was 77%.
In the case of `CC(=O)OCc1ccc(-c2ccc(/C=C3/NC(=S)NC3=O)s2)cc1` [Cmpd 18, (E,Z)-4-(5-((5-Oxo-2-thioxoimidazolidin-4-ylidene)methyl)thiophen-2-yl)benzyl acetate], the IC50 (recombinant perforin) is reported as 3.04 µM, the inhibition at 20 µM [1] is reported as 98% and the “percent viable KHYG-1 cells” value (KHYG-1 NK cells) is reported as 100%.
With `O=C1NC(=S)N/C1=C\c1ccc(-c2ccc3c(c2)CCNC3=O)s1` [Cmpd 82, (E,Z)-6-(5-((5-Oxo-2-thioxoimidazolidin-4-ylidene)methyl)thiophen-2-yl)-3,4-dihydroisoquinolin-1(2H)-one] the IC50 (recombinant perforin) was 1.14 µM, the inhibition at 20 µM [1] was 92% and the “percent viable KHYG-1 cells” value (KHYG-1 NK cells) was 80%.
Compound `O=C1NC(=S)N/C1=C\c1cccc(-c2ccc3c(c2)CNC3=O)c1` [Cmpd 49, (E,Z)-5-(3-((5-Oxo-2-thioxoimidazolidin-4-ylidene)methyl)phenyl)isoindolin-1-one] has a melting point of over 300 °C, an IC50 (recombinant perforin) of 3.44 µM and an inhibition at 20 µM [1] of 8%.
With `O=C1NC(=S)N/C1=C/c1ccc(-c2ccc3c(c2)CN(CCCN2CCCCC2)C3=O)s1` [Cmpd 75, (E,Z)-5-(5-((5-Oxo-2-thioxoimidazolidin-4-ylidene)methyl)thiophen-2-yl)-2-(3-(piperidin-1-yl)propyl)isoindolin-1-one] the IC50 (recombinant perforin) was 11.8 µM, the inhibition at 20 µM [1] was 61% and the “percent viable KHYG-1 cells” value (KHYG-1 NK cells) was 85%.
For `O=C1NC(=S)N/C1=C/c1ccc(-c2ccc(O)cc2)s1` [Cmpd 35, (E,Z)-5-((5-(4-Hydroxyphenyl)thiophen-2-yl)methylene)-2-thioxoimidazolidin-4-one], the IC50 (recombinant perforin) was 7.72 µM, the inhibition at 20 µM [1] was 90% and the “percent viable KHYG-1 cells” value (KHYG-1 NK cells) was 93%.
For `COC(=O)c1ccc(-c2ccc(/C=C3/NC(=S)NC3=O)s2)cc1` [Cmpd 19, (E,Z)-Methyl 4-(5-((5-oxo-2-thioxoimidazolidin-4-ylidene)methyl)thiophen-2-yl)benzoate], the IC50 (recombinant perforin) was 1.62 µM, the inhibition at 20 µM [1] was 30% and the “percent viable KHYG-1 cells” value (KHYG-1 NK cells) was 95%.
With `O=C1NC(=S)N/C1=C/c1ccc(-c2ccc3c(c2)C(=O)NC3)s1` [Cmpd 72, (E,Z)-6-(5-((5-Oxo-2-thioxoimidazolidin-4-ylidene)methyl)thiophen-2-yl)isoindolin-1-one] the IC50 (recombinant perforin) was 1.38 µM, the inhibition at 20 µM [1] was 58% and the “percent viable KHYG-1 cells” value (KHYG-1 NK cells) was 81%.
With `O=C1NC(=S)N/C1=C/c1cc(-c2ccc3c(c2)CNC3=O)cs1` [Cmpd 50, (E,Z)-5-(5-((5-Oxo-2-thioxoimidazolidin-4-ylidene)methyl)thiophen-3-yl)isoindolin-1-one] the melting point was over 300 °C, the IC50 (recombinant perforin) was 3 µM and the inhibition at 20 µM [1] was 42%.
